Results from patent US20230144203A1 (SHANGHAI SENHUI MEDICINE CO., LTD., priority 2020, published 2023).
Like-named read-outs stand apart in the source and are kept apart here.

Experiments:
[1] = tested on: MDA-MB-468; assay: Test Example 1 in vitro cytotoxic activity screening (CTG); format: cell-based; conditions: for IC50: Homo sapiens
Procedure: (§1) The CTG is used for detecting the ATP content in the experiment, and the survival condition of the tumor cells is reflected. […] The killing effect of the toxin molecule was then assayed according to this condition. 1.2. Selection of cell lines
(§2) According to the purpose of the experiment, two disease models of breast cancer and NSCLC were selected, and SKBR3 tumor cells (HER2+, ATCC, Cat #HTB-30), MDA-MB-468 (HER2-, ATCC, Cat #HTB-132) and A549 (human non-small cell lung cancer cells, ATCC, Cat #CCL-185) were selected for screening.
(§3) 2) Cell plating: A549 cells were digested with trypsin, and the cells were terminated with the above medium, and 4.3×10^5, 7.2×10^5 and 11.5×10^5 cells were added to the medium to give a final volume of 26 mL. 180 μL of cell suspension was added to each well in columns 2 to 11 of a 96-well plate (coming, Cat #3903) to give cell densities of 3K, 5K and 8K per well. Wells in column 12 were filled with 200 μL of culture medium and the remaining wells were filled with PBS. The above operations were repeated on the SKBR3 and MDA-MB-468 cells. The sample was duplicated.
(§4) 2 mM of stock solution (stock diluted 10-fold in DMSO) was prepared in column 1 of drug preparation plate 1, then 10-fold dilution in DMSO by gradient was performed in column 10, and the wells in column 11 were filled with DMSO. 95 μL of corresponding culture solution was added into each well from column 2 to column 11 of the drug preparation plate 2, 5 μL of solution was pipetted from column 2 to column 11 of drug preparation plate 1 to drug preparation plate 2, the solution was mixed well, 20 μL of solution was pipetted, added into the plated cells, and continuously cultured for 3 days and 5 days.
(§5) 4) CTG assay (Cell Titer-Glo™, luminescent cell viability assay, Promega): the cell plates were removed on day 3 and day 5, and balanced to room temperature. 90 μL of CTG was added into each well and reacted at room temperature for 10 min in the dark. The absorption value was read using a microplate reader and IC50 was calculated.

[2] = tested on: SKBR3 tumor cells; assay: as above; format: cell-based; conditions: for IC50: Homo sapiens, SK-BR-3
Procedure: as §1, §2, §3, §4, §5

[3] = Test Example 6 pharmacokinetic study in beagles; conditions: male, beagle, dog, iv, 0.5 mg/kg
Procedure: The pharmacokinetic performance in beagles of the compounds of the present disclosure was studied and the pharmacokinetic profile thereof was evaluated.
Male 6 beagles were divided into 2 groups of 3, purchased from Shanghai Medicilon Inc., and subjected to administration test.
Plasma samples were stored in a refrigerator at −80° C. prior to testing. […] The plasma concentration of the test compounds in beagles after drug injection was determined: after administration, 25 μL of beagle plasma at various times after administration was taken, and added with 50 μL (100 ng/mL) of internal standard solution camptothecin (National Institutes for Drug Control) and 200 μL of acetonitrile. The mixture was vortexed for 5 min and centrifuged for 10 min (3700 rpm/min). 3 to 4 μL of the supernatant of the plasma sample was subjected to LC/MS assay (API4000 triple quadrupole tandem mass spectrometer (No. 2), Applied Biosystems, USA; Shimadzu, LC-30AD ultra high performance liquid chromatography system, Shimadzu, Japan.) The analysis was performed.

[4] = tested on: A549; assay: Test Example 1 in vitro cytotoxic activity screening (CTG); format: cell-based, human; conditions: for IC50: Homo sapiens
Procedure: as §1, §2, §3, §4, §5

[5] = tested on: A549; assay: Test Example 2 in vitro cytotoxic activity screening (CTG); format: cell-based; conditions: for IC50: Homo sapiens
Procedure: (§6) The CTG is used for detecting the ATP content in the experiment, and the survival condition of the tumor cells is reflected.
(§7) A549, SKBR3 and MDA-MB-468 were digested with trypsin, and each was resuspended in culture medium to a cell density of 2.2×10^4 cells/mL, and 135 μL of cell suspension was added to each well in columns 2 to 11 of a 96-well plate, and column 12 was set as blank control. The cells were incubated in an incubator for 24 h at 37° C. with 5% CO2.
(§8) a) Stock solution preparation: the test compound and positive control drug were dissolved in DMSO to give a stock solution at a concentration of 5 mM.
(§9) b) Drug preparation plate 1: stock solution in column 1 was initially diluted 40-fold, and 3-fold gradient dilutions were performed sequentially in column 2 to column 11. Column 12 was filled with DMSO.
(§10) c) Drug preparation plate 2: 196 μL of the corresponding culture medium was added into columns 2 to 11, and 4 μL of culture medium was pipetted from column 3 to column 12 of drug preparation plate 1 to column 2 to column 11 of drug preparation plate
(§11) 15 μL of culture medium was pipetted from the drug preparation plate 2 and added into the plated cells. The cells were continuously incubated in an incubator for 5 h at 37° C. with 5% CO2.
(§12) 2.4) CTG assay (Cell Titer-Glo™, luminescent cell viability assay): the cell plates were removed and balanced to room temperature. 75 μL of CTG was added into each well and reacted at room temperature for 10 min in the dark. The absorption value was read using a microplate reader and IC50 was calculated.

[6] = tested on: MDA-MB-468; assay: as above; format: cell-based; conditions: for IC50: Homo sapiens
Procedure: as §6, §7, §8, §9, §10, §11, §12

[7] = tested on: SKBR3; assay: as above; format: cell-based; conditions: for IC50: Homo sapiens
Procedure: as §6, §7, §8, §9, §10, §11, §12

[8] = MDA-MB-468, CTG, read-out: IC50
[9] = SK-BR-3, SKBR3, CTG, incubated 5 h, read-out: IC50

## C=C1C[C@@H]2CC[C@@]34C[C@H]5O[C@H]6[C@@H](O3)[C@H]3O[C@H](CC[C@@H]3O[C@H]6[C@H]5O4)CC(=O)C[C@@H]3[C@@H](OC)[C@@H](C[C@@H](CN)OC)O[C@H]3C[C@H]3O[C@@H](CC[C@@H]1O2)C[C@@H](C)C3=C [Compound D-1]
[1]; MDA-MB-468
  IC50: 0.183 nM
[1]; MDA-MB-468, CTG
  Maximum inhibition: 88.01%
[2]
  IC50: 0.205 nM
[2]; SKBR3, CTG
  Maximum inhibition: 96.87%
[3]; in vivo
  AUC(0-t): 433 ng·h/mL
  MRT: 41.1 h
  Vd: 22 L/kg
  clearance: 8.9 mL/min/kg
  concentration at 5 min: 82.1 ng/mL
  half-life: 29.3 h
[4]; A549, CTG
  Maximum inhibition: 81.34%
[4]; A549
  IC50: 0.515 nM

## C=C1C[C@@H]2CC[C@@]34C[C@H]5O[C@H]6[C@@H](O3)[C@H]3O[C@H](CC[C@@H]3O[C@H]6[C@H]5O4)CC(=O)C[C@@H]3[C@@H](OC)[C@@H](C[C@H](O)CNC(=O)[C@H](O)C4CC4)O[C@H]3C[C@H]3O[C@@H](CC[C@@H]1O2)C[C@@H](C)C3=C [Compound D-2]
[1]; [8]
  IC50: 0.909 nM
[2]; SKBR3, CTG, read-out: IC50
  IC50: 0.839 nM
[4]; A549, CTG, read-out: IC50
  IC50: 3.16 nM

## C=C1C[C@@H]2CC[C@@]34C[C@H]5O[C@H]6[C@@H](O3)[C@H]3O[C@H](CC[C@@H]3O[C@H]6[C@H]5O4)CC(=O)C[C@@H]3[C@@H](OC)[C@@H](C[C@@H](CNC(=O)[C@H](O)C4CC4)OC)O[C@H]3C[C@H]3O[C@@H](CC[C@@H]1O2)C[C@@H](C)C3=C [Compound D-3]
[1]; MDA-MB-468
  IC50: 1.67 nM
[2]
  IC50: 1.36 nM
[5]; A549, CTG, incubated 5 h
  Maximum inhibition: 63.03%
[5]; A549, 5 h
  IC50: 2.17 nM
[6]; MDA-MB-468, 5 h
  IC50: 1.98 nM
[6]; MDA-MB-468, CTG, incubated 5 h
  Maximum inhibition: 90.94%
[7]; SK-BR-3, 5 h
  IC50: 1.18 nM
[7]; SKBR3, CTG, incubated 5 h
  Maximum inhibition: 96.36%
[4]; A549
  IC50: 5.14 nM

## C=C1C[C@@H]2CC[C@]34C[C@@H]5O[C@H]6[C@@H](O3)[C@@H]3O[C@H](CC[C@@H]3O[C@@H]6[C@H]5O4)CC(=O)C[C@@H]3[C@H](OC)[C@@H](C[C@H](O)CNC(=O)CO)O[C@H]3C[C@H]3O[C@@H](CC[C@@H]1O2)C[C@H](C)C3=C [Compound D-4]
[1]; [8]
  IC50: 1.78 nM
[2]; SKBR3, CTG, read-out: IC50
  IC50: 1.3 nM
[5]; A549, CTG, incubated 5 h
  Maximum inhibition: 62.09%
[5]; A549, CTG, incubated 5 h, read-out: IC50
  IC50: 3.08 nM
[6]; MDA-MB-468, CTG, incubated 5 h, read-out: IC50
  IC50: 1.88 nM
[6]; MDA-MB-468, CTG, incubated 5 h
  Maximum inhibition: 89.43%
[7]; [9]
  IC50: 1.09 nM
[7]; SKBR3, CTG, incubated 5 h
  Maximum inhibition: 96.85%
[4]; A549, CTG, read-out: IC50
  IC50: 5.61 nM

## C=C1C[C@@H]2CC[C@@]34C[C@H]5O[C@H]6[C@@H](O3)[C@H]3O[C@H](CC[C@@H]3O[C@H]6[C@H]5O4)CC(=O)C[C@@H]3[C@@H](OC)[C@@H](C[C@H](O)CNC(=O)C4(O)CC4)O[C@H]3C[C@H]3O[C@@H](CC[C@@H]1O2)C[C@@H](C)C3=C [Compound D-5]
[2]; SKBR3, CTG, read-out: IC50
  IC50: 0.383 nM
[4]; A549, CTG, read-out: IC50
  IC50: 4.02 nM

## C=C1C[C@@H]2CC[C@@]34C[C@H]5O[C@H]6[C@@H](O3)[C@H]3O[C@H](CC[C@@H]3O[C@H]6[C@H]5O4)CC(=O)C[C@@H]3[C@@H](OC)[C@@H](C[C@H](O)COC(=O)[C@H](O)C4CC4)O[C@H]3C[C@H]3O[C@@H](CC[C@@H]1O2)C[C@@H](C)C3=C [Compound D-6]
[1]; [8]
  IC50: 0.996 nM
[2]; SKBR3, CTG, read-out: IC50
  IC50: 0.294 nM
[4]; A549, CTG, read-out: IC50
  IC50: 1.85 nM

## C=C1C[C@@H]2CC[C@@]34C[C@H]5O[C@H]6[C@@H](O3)[C@H]3O[C@H](CC[C@@H]3O[C@H]6[C@H]5O4)CC(=O)C[C@@H]3[C@@H](OC)[C@@H](C[C@H](O)COC(=O)C4(O)CC4)O[C@H]3C[C@H]3O[C@@H](CC[C@@H]1O2)C[C@@H](C)C3=C [Compound D-7]
[1]; [8]
  IC50: 0.903 nM
[2]; SKBR3, CTG, read-out: IC50
  IC50: 0.481 nM
[4]; A549, CTG, read-out: IC50
  IC50: 1.78 nM

## C=C1C[C@@H]2CC[C@@]34C[C@H]5O[C@H]6[C@@H](O3)[C@H]3O[C@H](CC[C@@H]3O[C@H]6[C@H]5O4)CC(=O)C[C@@H]3[C@@H](OC)[C@@H](C[C@H](O)COC(=O)c4ccc(CO)cc4)O[C@H]3C[C@H]3O[C@@H](CC[C@@H]1O2)C[C@@H](C)C3=C [Compound D-8]
[1]; [8]
  IC50: 0.843 nM
[2]; SKBR3, CTG, read-out: IC50
  IC50: 0.33 nM
[4]; A549, CTG, read-out: IC50
  IC50: 0.811 nM

## C=C1C[C@@H]2CC[C@@]34C[C@H]5O[C@H]6[C@@H](O3)[C@H]3O[C@H](CC[C@@H]3O[C@H]6[C@H]5O4)CC(=O)C[C@@H]3[C@@H](OC)[C@@H](C[C@H](O)CNC)O[C@H]3C[C@H]3O[C@@H](CC[C@@H]1O2)C[C@@H](C)C3=C [Compound E-305, reference compound]
[5]; A549, CTG, incubated 5 h
  Maximum inhibition: 61.27%
[5]; A549, 5 h
  IC50: 2.1 nM
[6]; MDA-MB-468, 5 h
  IC50: 1.17 nM
[6]; MDA-MB-468, CTG, incubated 5 h
  Maximum inhibition: 88.53%
[7]; [9]
  IC50: 0.571 nM
[7]; SKBR3, CTG, incubated 5 h
  Maximum inhibition: 96.42%

## C=C1C[C@@H]2CC[C@@]34C[C@H]5O[C@H]6[C@@H](O3)[C@H]3O[C@H](CC[C@@H]3O[C@H]6[C@H]5O4)CC(=O)C[C@@H]3[C@@H](OC)[C@@H](C[C@H](O)CN)O[C@H]3C[C@H]3O[C@@H](CC[C@@H]1O2)C[C@@H](C)C3=C [Eribulin, eribulin, reference compound]
[1]; MDA-MB-468, CTG
  Maximum inhibition: 87.47%
[2]; SKBR3, CTG
  Maximum inhibition: 94.90%
[3]
  concentration at 5 min: 217 ng/mL
[4]; A549, CTG
  Maximum inhibition: 81.50%
